The source of these data is US20240124408A1 (Sanofi, priority 2020, published 2024).

pEC50: −log10 of the molar value. Like-named read-outs stand apart in the source and are kept apart here.

Assay [1] deals with T1, pig TRPM8 (Sus scrofa, UniProt F1SM15).
T1 construct: expressed in transfected cells; host or cells: CHO (pcDNA5/FRT/TO vector; hygromycin B and blasticidin selection)
Nature of the assay: In vitro pig TRPM8 automated patch-clamp assay (SyncroPatch 384PE, CHO cells). Type of assay: cell-based. Conditions: CHO cells expressing pig TRPM8, 28° C. Summed up:
(§1)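 Whole-cell automated patch clamp on engineered CHO lines at 28 °C, held at −60 mV, with −80 to +80 mV ramps every 5 s; one compound concentration per well. Peak current minus pre-addition baseline was normalised to no-compound control and Emax, and EC50 was fitted; 200 μM menthol wells served as control.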

For assay [2], the target named is T2, human TRPM8 (Homo sapiens, UniProt Q7Z2W7).
T2 construct: expressed in transfected cells; host or cells: CHO (p658 mammalian expression vector)
Nature of the assay: In vitro human TRPM8 fluorescence calcium flux assay (recombinant CHO cells, Fluo4-AM, FDSS6000). Type of assay: cell-based. Conditions: recombinant CHO cells expressing human TRPM8; menthol-related EC50, normalized to 100 μM menthol. Summed up: (§2)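 Agonist EC50 values come from sixteen-point dose responses normalized to the 100 μM menthol maximum, fitted sigmoidally. Calcium rise was followed for 3 min post-addition in recombinant CHO lines (human or pig TRPM8). Cells were dye-loaded with 2 μM Fluo4-AM, 1 h at room temperature, probenecid-containing HBSS.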
For orientation: Calcium flux is commonly read through the fluorescence of an indicator in the cells.

Assay [3] deals with T2, human TRPM8. Nature of the assay: In vitro human TRPM8 automated patch-clamp assay (SyncroPatch 384PE, CHO cells). Type of assay: cell-based. The note with it: CHO cells expressing human TRPM8, 28° C. The procedure, abridged: as §1
For orientation: In patch-clamp work, channel activity is measured electrically.

Assay [4] relates to Male castrated German Landrace pigs. The assay can be described thus: In vivo assay: enhancement of swallowing in anesthetized pigs (manometry with pressure probe in the mouth). The note with it: Sus scrofa, anesthetized pig, dose per pig 10 mg, injected in 1 ml vehicle into the oral cavity. The method, then:
For testing the efficacy of TRPM8 agonists for enhancing swallowing, experiment using the pig model can be conducted according to assay described below. The efficacy can be compared to a vehicle control.
Male castrated German Landrace pigs (weight range of 20 to 35 kg) were used. Anesthesia was induced by injecting 20 ml of a urethane solution (20 g/100 mL dissolved in saline) into an ear vein corresponding to a dose of around […]. Anesthesia was maintained by continuous infusion of 15-20 mL per hour of the urethane solution, which was infused into an epigastric vein, and additionally by infusion of Zoletil and Rompun (500 mg Zoletil is disssovled in 10 ml of Rompun 2%, then diluted 1:10 with saline and 3-5 mL per hour of this diluted solution. Bupivacain 0.5% JENAPHARM@ was injected for additional infiltration anesthesia. Anesthesia was monitored via pulsoximetry (ear) and regular reflex testing for pain. Body temperature was monitored and maintained by an infrared lamp.
Preparation of pigs: Swallowing responses were assessed by manometry with a pressure probe placed into the mouth of the pig. The pressure probe consisted of a plastic tube (diameter 3.3 mm) to which a small balloon was attached. The tube was advanced about 12-14 cm into the mouth related to the snout. The balloon was then inflated with air to yield a pressure of 20-30mbar (vehicle). Ideally a swallowing response with 1 ml of fluid raised this pressure by 20-50mbar which was then referred to as the swallowing pressure (the increment of this pre-set pressure in the inflated balloon after swallowing) to be further enhanced by an effective test drug.
The free end of the tube was connected to a differential pressure transducer MPX Type 399/2 (Hugo Sachs Elektronik-Harvard Apparatus) and a Hugo Sachs Plugsys-amplifier system. The biological signals were recorded by a Hugo Sachs Plugsys-amplifier system and continuously stored on a computer hard disk by an on line data acquisition and analysis system (Hem 4.2 Notocord Systems, Croissy-sur-Seine, France).
A second tube referred to as injection tube was placed dorsally to the manometer tube to enable the administration of the vehicle that induced the baseline swallowing activity, or of this same vehicle containing the test compound.
Induction and assessment of swallowing activity: 0.5h after anesthesia induction 1 ml of a fluid or the vehicle for the test drug was injected into the injection tube placed into the oral cavity. The number of swallows was counted and the highest-pressure increment was registered. Challenges with vehicle were repeated at intervals of 30 min until two consecutive vehicle challenges show an about equal swallowing response. The next challenge was the vehicle loaded with the test drug (otherwise same procedure). The efficacy of a compound to enhance swallowing as shown in Table 7 was expressed as the % increase in pressure and frequency of swallowing after administration of the compound compared to the pressure and frequency recorded for its vehicle administered just before.

In assay [5] the target is T1, pig TRPM8. Nature of the assay: In vitro pig TRPM8 fluorescence calcium flux assay (recombinant CHO cells, Fluo4-AM, FDSS6000). In kind it is cell-based. The note with it: recombinant CHO cells expressing pig TRPM8; menthol-related EC50, normalized to 100 μM menthol. Summed up:
as §2

The mark [6] stands for this setting: frequency of swallowing compared with vehicle administered just before, read-out: % increase frequence vs vehicle.
[7] abbreviates: swallowing pressure compared with vehicle administered just before, read-out: % increase pressure vs vehicle.

T2 sequence (Q7Z2W7 whole entry): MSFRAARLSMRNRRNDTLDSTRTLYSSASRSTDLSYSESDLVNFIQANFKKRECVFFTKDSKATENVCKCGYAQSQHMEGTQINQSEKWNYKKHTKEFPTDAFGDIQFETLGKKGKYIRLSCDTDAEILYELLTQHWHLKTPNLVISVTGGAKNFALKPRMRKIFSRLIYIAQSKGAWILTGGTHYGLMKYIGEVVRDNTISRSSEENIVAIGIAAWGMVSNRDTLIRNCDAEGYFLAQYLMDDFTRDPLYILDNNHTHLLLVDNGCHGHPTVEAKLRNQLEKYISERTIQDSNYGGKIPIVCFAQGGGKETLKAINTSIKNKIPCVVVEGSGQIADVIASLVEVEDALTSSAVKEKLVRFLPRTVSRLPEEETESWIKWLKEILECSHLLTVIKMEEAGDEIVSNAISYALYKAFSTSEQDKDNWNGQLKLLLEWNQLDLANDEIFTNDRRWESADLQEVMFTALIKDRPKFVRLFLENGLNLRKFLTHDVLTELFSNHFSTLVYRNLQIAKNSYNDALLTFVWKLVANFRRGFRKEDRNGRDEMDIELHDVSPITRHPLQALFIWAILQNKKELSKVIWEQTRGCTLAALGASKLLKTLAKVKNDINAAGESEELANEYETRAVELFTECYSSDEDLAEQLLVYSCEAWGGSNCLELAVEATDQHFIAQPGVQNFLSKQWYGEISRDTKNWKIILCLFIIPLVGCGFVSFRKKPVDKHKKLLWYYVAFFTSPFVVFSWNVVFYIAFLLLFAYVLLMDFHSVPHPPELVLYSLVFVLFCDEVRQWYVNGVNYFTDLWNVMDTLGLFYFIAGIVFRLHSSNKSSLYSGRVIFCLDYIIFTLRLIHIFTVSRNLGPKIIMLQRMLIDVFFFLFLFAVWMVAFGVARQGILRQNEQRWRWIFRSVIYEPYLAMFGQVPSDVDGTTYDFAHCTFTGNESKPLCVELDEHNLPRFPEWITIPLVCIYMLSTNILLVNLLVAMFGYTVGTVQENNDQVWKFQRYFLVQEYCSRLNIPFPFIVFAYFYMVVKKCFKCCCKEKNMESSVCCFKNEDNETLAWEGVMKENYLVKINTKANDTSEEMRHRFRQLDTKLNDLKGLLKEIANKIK
T1 sequence (F1SM15 1-1104): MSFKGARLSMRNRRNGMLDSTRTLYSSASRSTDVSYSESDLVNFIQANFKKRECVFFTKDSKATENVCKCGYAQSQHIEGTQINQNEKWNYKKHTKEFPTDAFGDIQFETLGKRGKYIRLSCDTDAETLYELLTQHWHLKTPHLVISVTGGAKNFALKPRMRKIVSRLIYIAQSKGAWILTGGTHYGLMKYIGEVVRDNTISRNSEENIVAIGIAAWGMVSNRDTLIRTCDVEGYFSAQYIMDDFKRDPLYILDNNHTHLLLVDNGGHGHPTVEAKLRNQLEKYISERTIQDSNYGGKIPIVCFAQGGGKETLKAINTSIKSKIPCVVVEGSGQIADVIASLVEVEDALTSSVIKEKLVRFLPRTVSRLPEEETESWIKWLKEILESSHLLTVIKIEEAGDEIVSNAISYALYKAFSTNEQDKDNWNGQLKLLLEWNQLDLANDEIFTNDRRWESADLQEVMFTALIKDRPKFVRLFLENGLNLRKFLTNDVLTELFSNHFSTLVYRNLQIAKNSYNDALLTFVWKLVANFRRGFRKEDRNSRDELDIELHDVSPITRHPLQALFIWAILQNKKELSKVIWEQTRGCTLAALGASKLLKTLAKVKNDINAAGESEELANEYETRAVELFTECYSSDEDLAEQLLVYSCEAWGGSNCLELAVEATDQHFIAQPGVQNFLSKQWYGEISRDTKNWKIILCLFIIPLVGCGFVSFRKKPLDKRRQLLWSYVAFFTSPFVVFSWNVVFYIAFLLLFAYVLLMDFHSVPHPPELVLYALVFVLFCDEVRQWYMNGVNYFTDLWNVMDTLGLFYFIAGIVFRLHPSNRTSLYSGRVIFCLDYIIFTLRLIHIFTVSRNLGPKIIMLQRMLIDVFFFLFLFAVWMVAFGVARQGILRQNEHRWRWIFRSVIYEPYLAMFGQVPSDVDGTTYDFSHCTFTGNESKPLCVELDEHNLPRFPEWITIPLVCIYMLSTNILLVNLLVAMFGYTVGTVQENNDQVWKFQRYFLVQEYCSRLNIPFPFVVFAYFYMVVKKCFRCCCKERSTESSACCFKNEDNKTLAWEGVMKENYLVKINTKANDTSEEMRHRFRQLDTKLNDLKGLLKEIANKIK

By pEC50 is commonly meant the negative decadic logarithm of the EC50, by convention in mol/L. As for `CC(C)[C@@H]1CC[C@@H](C)C[C@@]1(O)C(=O)NC[C@@H](N)c1ccccc1` [Example 50, (1S,2S,5R)—N-((2S)-amino-2-phenylethyl)-1-hydroxy-2-isopropyl-5-methylcyclohexane-1-carboxamide], the negative-log EC50 (pEC50) is 7.15 at pig TRPM8 [1], 9.40 on human TRPM8 [2], 6.85 at human TRPM8 [3] and 9.40 on pig TRPM8 [5]. For the same compound, the change in vivo at 10 mg was 100% in assay [4] (setting [6]) and 63% in assay [4] (setting [7]).
Consider `CC(C)[C@@H]1CC[C@@H](C)C[C@@]1(O)C(=O)NC[C@@H](O)c1ccccc1` [Example 1, (1S,2S,5R)-1-hydroxy-N—((S)-2-hydroxy-2-phenylethyl)-2-isopropyl-5-methylcyclohexane-1-carboxamide], for which the negative logarithm of the EC50 (pEC50) was 6.13 at pig TRPM8 [1], 8.77 on human TRPM8 [2], 6.09 at human TRPM8 [3] and 8.92 at pig TRPM8 [5]. The change in vivo at 10 mg in assay [4] (setting [6]) came to 231%; in assay [4] (setting [7]), 274%.
Consider `CC(C)[C@@H]1CC[C@@H](C)C[C@@]1(O)C(=O)NCC(F)(F)c1ccccc1` [Example 4, (1S,2S,5R)—N-(2,2-difluoro-2-phenylethyl)-1-hydroxy-2-isopropyl-5-methylcyclohexane-1-carboxamide], for which the negative logarithm of the EC50 (pEC50) was 6.33 at pig TRPM8 [1], 8.55 at human TRPM8 [2], 6.27 at human TRPM8 [3] and 8.92 at pig TRPM8 [5]. In addition, the change in vivo at 10 mg in assay [4] (setting [6]) stood at 417%; in assay [4] (setting [7]), 221%.
